Test results: patent publication US20210323913A1, “SIGMA RECEPTOR BINDERS” (BOARD OF REGENTS, THE UNIVERSITY OF TEXAS SYSTEM, priority 2016, published 2021)
Where two headings read alike, the source gives them in different places.

What was measured:
sigma 1 receptor = sigma 1 receptor (Homo sapiens, UniProt Q99720); experiment: Sigma 1 receptor radioligand competition binding
sigma 2 receptor = sigma 2 receptor (Homo sapiens, UniProt Q5BJF2); experiment: Sigma 2 receptor radioligand competition binding; conditions: for Ki ratio Sig1R/Sig2R: ratio of Sig1R Ki to Sig2R Ki
H1 = H1 (Homo sapiens, UniProt P35367); experiment: Radioligand competition binding, H1; conditions: Table 5; Cheng-Prusoff from best fit IC50
5-HT1A = biological target: T1, 5-HT1A (Homo sapiens, UniProt P08908); experiment: Radioligand competition binding, 5-HT1A; conditions: Table 5; Cheng-Prusoff from best fit IC50
T1 sequence (P08908 1-422): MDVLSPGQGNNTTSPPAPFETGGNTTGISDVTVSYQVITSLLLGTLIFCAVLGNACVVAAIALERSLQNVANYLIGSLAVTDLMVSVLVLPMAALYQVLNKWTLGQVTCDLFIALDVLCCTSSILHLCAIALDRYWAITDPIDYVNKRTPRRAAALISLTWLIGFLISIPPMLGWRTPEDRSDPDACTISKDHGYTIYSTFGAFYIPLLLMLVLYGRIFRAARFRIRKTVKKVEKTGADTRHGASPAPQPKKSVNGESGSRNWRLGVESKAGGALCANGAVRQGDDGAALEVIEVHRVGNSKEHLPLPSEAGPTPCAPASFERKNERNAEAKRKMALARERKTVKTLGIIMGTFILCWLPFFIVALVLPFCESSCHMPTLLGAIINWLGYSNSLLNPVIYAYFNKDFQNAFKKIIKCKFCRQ

5-HT1B = 5-HT1B (Homo sapiens, UniProt P28222); experiment: Radioligand competition binding, 5-HT1B; conditions: Table 5; Cheng-Prusoff from best fit IC50
5-HT1D = 5-HT1D (Homo sapiens, UniProt P28221); experiment: Radioligand competition binding, 5-HT1D; conditions: Table 5; Cheng-Prusoff from best fit IC50
5-HT2A = 5-HT2A (Homo sapiens, UniProt P28223); experiment: Radioligand competition binding, 5-HT2A; conditions: Table 5; Cheng-Prusoff from best fit IC50
5-HT2B = 5-HT2B (Homo sapiens, UniProt P41595); experiment: Radioligand competition binding, 5-HT2B; conditions: Table 5; Cheng-Prusoff from best fit IC50
5-HT6 = 5-HT6 (Homo sapiens, UniProt P50406); experiment: Radioligand competition binding, 5-HT6; conditions: Table 5; Cheng-Prusoff from best fit IC50
5-HT7 = 5-HT7 (Homo sapiens, UniProt P34969); experiment: Radioligand competition binding, 5-HT7; conditions: Table 5; Cheng-Prusoff from best fit IC50
Alpha2A = biological target: T2, Alpha2A (Homo sapiens, UniProt P08913); experiment: Radioligand competition binding, Alpha2A; conditions: Table 5; Cheng-Prusoff from best fit IC50
T2 sequence (P08913 1-465): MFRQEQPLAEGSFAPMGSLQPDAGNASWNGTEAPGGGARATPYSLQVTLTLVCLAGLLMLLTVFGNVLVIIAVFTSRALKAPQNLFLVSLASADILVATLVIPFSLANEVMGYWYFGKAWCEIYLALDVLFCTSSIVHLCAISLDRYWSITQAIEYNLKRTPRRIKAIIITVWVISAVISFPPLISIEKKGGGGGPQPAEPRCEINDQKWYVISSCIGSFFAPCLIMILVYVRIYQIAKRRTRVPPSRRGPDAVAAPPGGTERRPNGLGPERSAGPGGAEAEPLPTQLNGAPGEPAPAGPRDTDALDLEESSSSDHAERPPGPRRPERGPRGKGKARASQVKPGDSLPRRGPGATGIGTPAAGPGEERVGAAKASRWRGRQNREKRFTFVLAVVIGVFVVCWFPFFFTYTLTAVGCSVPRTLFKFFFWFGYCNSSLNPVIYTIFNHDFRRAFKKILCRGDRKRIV

D1 = D1 (Homo sapiens, UniProt P21728); experiment: Radioligand competition binding, D1; conditions: Table 5; Cheng-Prusoff from best fit IC50; some values marked (AVE)
D2 = D2 (Homo sapiens, UniProt P14416); experiment: Radioligand competition binding, D2; conditions: Table 5; Cheng-Prusoff from best fit IC50
D3 = D3 (Homo sapiens, UniProt P35462); experiment: Radioligand competition binding, D3; conditions: Table 5; Cheng-Prusoff from best fit IC50; one value marked (AVE)
D4 = biological target: T3, D4 (Homo sapiens, UniProt P21917); experiment: Radioligand competition binding, D4; conditions: Table 5; Cheng-Prusoff from best fit IC50
T3 sequence (P21917 1-419): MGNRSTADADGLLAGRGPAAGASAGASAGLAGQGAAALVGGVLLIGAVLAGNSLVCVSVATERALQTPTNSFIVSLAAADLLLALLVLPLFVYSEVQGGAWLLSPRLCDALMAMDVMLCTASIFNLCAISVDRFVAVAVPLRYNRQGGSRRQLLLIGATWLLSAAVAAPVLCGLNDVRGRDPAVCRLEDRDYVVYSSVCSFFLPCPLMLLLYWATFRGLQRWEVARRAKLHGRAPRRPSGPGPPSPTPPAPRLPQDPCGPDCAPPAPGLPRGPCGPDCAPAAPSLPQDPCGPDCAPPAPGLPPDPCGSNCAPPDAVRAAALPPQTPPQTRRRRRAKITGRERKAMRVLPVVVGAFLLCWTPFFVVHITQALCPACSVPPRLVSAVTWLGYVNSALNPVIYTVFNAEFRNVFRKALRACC

D5 = D5 (Homo sapiens, UniProt P21918); experiment: Radioligand competition binding, D5; conditions: Table 5; Cheng-Prusoff from best fit IC50
DAT = DAT (Homo sapiens, UniProt Q01959); experiment: Radioligand competition binding, DAT; conditions: Table 5; Cheng-Prusoff from best fit IC50
H2 = H2 (Homo sapiens, UniProt P25021); experiment: Radioligand competition binding, H2; conditions: Table 5; Cheng-Prusoff from best fit IC50
[1] = Table 1, 7-piperazinyl-tetrahydronaphthalene analogs, read-out: Ki (nM) Sig1R
[2] = Table 1, 7-piperazinyl-tetrahydronaphthalene analogs, read-out: Ki (nM) Sig2R
[3] = Table 5, Cheng-Prusoff from best fit IC50, read-out: Ki Sigma 2
[4] = Table 2, piperazinyl-tetrahydronaphthalene analogs, read-out: Ki (nM) Sig1R
[5] = Table 2, piperazinyl-tetrahydronaphthalene analogs, read-out: Ki (nM) Sig2R

sigma 1 receptor, sequence (Q99720 whole entry, species assumed): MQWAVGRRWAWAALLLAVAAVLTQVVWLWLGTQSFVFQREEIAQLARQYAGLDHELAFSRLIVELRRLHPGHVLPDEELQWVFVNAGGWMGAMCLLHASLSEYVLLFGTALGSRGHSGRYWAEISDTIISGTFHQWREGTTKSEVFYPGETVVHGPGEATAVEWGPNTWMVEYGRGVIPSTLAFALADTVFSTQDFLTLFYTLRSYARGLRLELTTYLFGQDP
sigma 2 receptor, sequence (Q5BJF2 whole entry, species assumed): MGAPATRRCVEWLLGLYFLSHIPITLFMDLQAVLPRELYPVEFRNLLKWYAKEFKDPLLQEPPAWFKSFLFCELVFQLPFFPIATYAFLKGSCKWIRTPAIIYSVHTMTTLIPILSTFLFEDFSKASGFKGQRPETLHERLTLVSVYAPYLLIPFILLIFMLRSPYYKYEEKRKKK
5-HT1B, sequence (P28222 whole entry, species assumed): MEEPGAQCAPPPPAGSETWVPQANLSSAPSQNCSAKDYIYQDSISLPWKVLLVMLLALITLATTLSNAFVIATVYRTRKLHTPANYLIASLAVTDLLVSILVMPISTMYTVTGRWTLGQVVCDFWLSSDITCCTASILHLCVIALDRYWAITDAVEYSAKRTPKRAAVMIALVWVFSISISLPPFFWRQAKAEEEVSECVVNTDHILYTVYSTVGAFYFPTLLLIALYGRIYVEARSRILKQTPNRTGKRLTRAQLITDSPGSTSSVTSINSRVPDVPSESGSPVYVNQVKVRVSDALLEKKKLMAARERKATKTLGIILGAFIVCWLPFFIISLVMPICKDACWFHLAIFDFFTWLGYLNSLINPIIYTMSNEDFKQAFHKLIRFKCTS
D1, sequence (P21728 whole entry): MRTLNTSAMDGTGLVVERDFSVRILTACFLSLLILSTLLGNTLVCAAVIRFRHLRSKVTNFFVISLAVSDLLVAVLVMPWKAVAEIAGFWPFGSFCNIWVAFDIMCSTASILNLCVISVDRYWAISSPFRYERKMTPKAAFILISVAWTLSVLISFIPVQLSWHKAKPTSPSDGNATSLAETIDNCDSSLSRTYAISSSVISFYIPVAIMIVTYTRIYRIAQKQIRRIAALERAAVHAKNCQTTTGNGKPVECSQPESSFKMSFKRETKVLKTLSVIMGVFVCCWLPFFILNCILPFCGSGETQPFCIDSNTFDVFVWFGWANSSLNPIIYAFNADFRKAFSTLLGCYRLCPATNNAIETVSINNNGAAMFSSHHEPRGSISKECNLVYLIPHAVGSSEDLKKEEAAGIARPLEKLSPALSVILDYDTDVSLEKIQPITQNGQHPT
5-HT2A, sequence (P28223 whole entry, species assumed): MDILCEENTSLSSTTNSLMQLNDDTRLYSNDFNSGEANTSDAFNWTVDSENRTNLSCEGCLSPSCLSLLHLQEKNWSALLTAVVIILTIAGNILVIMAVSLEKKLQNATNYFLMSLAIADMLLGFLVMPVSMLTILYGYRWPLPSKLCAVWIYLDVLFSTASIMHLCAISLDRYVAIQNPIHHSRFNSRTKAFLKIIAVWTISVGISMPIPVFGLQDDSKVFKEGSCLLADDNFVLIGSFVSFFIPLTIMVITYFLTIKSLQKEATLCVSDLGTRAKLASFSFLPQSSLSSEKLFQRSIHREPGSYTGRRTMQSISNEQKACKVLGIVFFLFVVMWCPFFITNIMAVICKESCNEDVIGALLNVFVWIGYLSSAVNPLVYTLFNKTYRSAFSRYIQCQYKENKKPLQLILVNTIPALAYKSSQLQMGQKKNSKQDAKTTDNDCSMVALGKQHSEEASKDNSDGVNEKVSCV
D3, sequence (P35462 whole entry): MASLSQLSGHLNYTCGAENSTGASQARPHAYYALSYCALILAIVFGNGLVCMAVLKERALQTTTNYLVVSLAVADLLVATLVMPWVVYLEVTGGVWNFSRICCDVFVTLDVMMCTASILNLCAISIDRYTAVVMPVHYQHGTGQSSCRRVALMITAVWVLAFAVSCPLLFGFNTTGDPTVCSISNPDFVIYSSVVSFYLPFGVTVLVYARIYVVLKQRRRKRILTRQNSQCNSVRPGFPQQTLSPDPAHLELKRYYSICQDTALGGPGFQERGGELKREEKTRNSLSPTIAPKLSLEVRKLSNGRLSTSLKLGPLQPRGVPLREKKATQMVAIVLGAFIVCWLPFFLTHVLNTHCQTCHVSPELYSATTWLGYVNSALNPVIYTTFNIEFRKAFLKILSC
H1, sequence (P35367 whole entry): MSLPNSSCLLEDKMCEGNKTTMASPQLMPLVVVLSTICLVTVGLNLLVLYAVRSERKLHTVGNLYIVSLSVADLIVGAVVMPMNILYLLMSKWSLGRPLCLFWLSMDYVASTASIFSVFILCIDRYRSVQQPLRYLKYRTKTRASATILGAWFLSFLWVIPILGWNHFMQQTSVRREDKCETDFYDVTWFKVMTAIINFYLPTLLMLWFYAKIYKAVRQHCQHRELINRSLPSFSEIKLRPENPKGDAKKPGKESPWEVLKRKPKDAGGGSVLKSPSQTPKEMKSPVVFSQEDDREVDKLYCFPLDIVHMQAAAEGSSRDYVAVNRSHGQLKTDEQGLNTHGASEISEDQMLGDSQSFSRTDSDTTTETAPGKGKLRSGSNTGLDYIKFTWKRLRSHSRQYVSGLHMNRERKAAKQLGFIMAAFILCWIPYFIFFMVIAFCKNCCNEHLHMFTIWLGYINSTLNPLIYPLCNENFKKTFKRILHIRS
H2, sequence (P25021 whole entry): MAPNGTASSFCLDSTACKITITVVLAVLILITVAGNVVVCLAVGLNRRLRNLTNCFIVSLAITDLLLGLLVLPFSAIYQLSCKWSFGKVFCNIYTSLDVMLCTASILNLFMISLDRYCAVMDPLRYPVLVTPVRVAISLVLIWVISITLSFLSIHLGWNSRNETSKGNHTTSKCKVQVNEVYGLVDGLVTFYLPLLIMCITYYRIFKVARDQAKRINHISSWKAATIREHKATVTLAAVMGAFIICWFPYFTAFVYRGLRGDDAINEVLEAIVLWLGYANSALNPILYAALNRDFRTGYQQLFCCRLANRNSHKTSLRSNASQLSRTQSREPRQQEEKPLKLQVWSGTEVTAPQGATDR
D2, sequence (P14416 whole entry): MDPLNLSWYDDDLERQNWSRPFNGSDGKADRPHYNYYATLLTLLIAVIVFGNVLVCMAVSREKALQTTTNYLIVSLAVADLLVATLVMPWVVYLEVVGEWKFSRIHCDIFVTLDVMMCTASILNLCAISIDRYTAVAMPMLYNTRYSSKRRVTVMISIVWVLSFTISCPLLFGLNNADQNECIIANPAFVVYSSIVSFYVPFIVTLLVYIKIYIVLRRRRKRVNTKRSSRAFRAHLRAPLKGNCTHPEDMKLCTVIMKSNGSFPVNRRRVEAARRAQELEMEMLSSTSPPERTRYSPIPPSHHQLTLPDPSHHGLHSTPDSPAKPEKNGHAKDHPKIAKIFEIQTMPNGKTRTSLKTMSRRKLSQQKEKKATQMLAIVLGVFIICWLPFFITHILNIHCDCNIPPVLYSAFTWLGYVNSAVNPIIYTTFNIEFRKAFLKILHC
D5, sequence (P21918 whole entry): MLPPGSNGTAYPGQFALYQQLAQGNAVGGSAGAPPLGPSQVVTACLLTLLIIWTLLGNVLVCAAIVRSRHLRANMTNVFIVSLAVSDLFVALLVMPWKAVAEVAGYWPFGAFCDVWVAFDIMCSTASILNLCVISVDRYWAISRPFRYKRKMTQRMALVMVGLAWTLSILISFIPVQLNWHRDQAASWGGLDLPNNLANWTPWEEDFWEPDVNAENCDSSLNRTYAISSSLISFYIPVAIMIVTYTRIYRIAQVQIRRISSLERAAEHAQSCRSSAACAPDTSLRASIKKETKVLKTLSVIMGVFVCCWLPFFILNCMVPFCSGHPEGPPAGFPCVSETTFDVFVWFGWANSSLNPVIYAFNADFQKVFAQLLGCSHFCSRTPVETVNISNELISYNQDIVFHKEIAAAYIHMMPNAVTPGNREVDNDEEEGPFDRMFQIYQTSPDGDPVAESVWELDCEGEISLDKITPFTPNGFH
5-HT6, sequence (P50406 whole entry, species assumed): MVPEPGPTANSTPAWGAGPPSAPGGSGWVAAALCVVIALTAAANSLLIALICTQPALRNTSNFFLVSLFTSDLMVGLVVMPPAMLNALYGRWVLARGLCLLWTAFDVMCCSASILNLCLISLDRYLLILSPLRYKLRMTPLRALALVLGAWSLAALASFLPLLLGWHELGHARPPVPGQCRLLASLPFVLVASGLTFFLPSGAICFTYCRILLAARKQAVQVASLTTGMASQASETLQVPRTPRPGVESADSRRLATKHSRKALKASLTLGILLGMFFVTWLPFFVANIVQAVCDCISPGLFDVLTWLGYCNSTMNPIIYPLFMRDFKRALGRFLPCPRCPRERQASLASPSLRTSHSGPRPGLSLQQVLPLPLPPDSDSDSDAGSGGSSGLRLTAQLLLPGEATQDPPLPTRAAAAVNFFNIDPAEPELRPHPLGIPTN
DAT, sequence (Q01959 whole entry, species assumed): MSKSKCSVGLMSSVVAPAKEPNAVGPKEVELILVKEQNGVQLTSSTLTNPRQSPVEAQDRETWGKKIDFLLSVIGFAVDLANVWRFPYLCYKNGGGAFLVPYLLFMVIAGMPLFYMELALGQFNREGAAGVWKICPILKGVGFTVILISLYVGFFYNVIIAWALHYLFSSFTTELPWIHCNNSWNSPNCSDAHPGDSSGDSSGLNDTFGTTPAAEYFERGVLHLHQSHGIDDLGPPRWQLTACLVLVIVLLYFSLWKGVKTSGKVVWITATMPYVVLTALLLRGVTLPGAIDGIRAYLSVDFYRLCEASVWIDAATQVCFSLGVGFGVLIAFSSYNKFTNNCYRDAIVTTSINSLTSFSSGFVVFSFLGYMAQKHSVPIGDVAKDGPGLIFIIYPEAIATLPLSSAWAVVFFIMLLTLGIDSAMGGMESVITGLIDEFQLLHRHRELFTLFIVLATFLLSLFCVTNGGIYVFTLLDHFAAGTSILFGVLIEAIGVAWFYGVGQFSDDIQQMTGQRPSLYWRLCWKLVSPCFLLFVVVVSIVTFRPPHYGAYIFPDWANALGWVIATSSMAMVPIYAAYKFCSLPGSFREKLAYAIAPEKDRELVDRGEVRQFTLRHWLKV

Row | SMILES | Ki (sigma 1 receptor; [1]) [nM] | Ki (sigma 2 receptor; [2]) [nM] | Ki ratio Sig1R/Sig2R (sigma 2 receptor; Table 1) | other results
1 | CN1CCN(c2ccc3c(c2)C(N(C)C(=O)OCc2ccccc2)CCC3)CC1 (stereo not drawn) [MDW-1-93, Benzyl methyl(7-(4-methylpiperazin-1-yl)-1,2,3,4-tetrahydronaphthalen-1-yl)carbamate] | 2940 | 284 | 10 | –
2 | CN(Cc1ccccc1)C1CCCc2cc(N3CCOCC3)ccc21 (stereo not drawn) [MDW-1-129, N-Benzyl-N-methyl-6-morpholino-1,2,3,4-tetrahydronaphthalen-1-amine] | – | – | – | Ki (sigma 1 receptor; Table 5, Cheng-Prusoff from best fit IC50, read-out: Ki Sigma 1): 223 nM; Ki (sigma 2 receptor; [3]): 1170 nM; Ki (H1): 118 nM
3 | CCN1CCN(c2ccc3c(c2)C(N(C)C(=O)OCc2ccccc2)CCC3)CC1 (stereo not drawn) [MDW-1-161, Benzyl (7-(4-ethylpiperazin-1-yl)-1,2,3,4-tetrahydronaphthalen-1-yl)(methyl)carbamate] | 887 | 35 | 25 | –
4 | CN(C(=O)OCc1ccccc1)C1CCCc2ccc(N3CCN(C4CCC4)CC3)cc21 (stereo not drawn) [MDW-1-162, Benzyl (7-(4-cyclobutylpiperazin-1-yl)-1,2,3,4-tetrahydronaphthalen-1-yl)(methyl)carbamate] | 266 | 12 | 22 | –
5 | COC(=O)CCN1CCN(c2ccc3c(c2)C(N(C)C(=O)OCc2ccccc2)CCC3)CC1 (stereo not drawn) [MDW-1-166, Methyl 3-(4-(8-(((benzyloxy)carbonyl)(methyl)amino)-5,6,7,8-tetrahydronaphthalen-2-yl)piperazin-1-yl)propanoate] | 2860 | 43 | 67 | –
6 | CC(C)N1CCN(c2ccc3c(c2)C(N(C)C(=O)OCc2ccccc2)CCC3)CC1 (stereo not drawn) [MDW-1-167, Benzyl (7-(4-isopropylpiperazin-1-yl)-1,2,3,4-tetrahydronaphthalen-1-yl)(methyl)carbamate] | 223 | 8 | 27 | –
7 | CCOC(=O)CN1CCN(c2ccc3c(c2)C(N(C)C(=O)OCc2ccccc2)CCC3)CC1 (stereo not drawn) [MDW-1-169, Ethyl 2-(4-(8-(((benzyloxy)carbonyl)(methyl)amino)-5,6,7,8-tetrahydronaphthalen-2-yl)piperazin-1-yl)acetate] | > 10000 | 894 | – | –
8 | CCOC(=O)CCN1CCN(c2ccc3c(c2)C(N(CC)C(=O)OCc2ccccc2)CCC3)CC1 (stereo not drawn) [MDW-1-190, Ethyl 3-(4-(8-(((benzyloxy)carbonyl)(ethyl)amino)-5,6,7,8-tetrahydronaphthalen-2-yl)piperazin-1-yl)propanoate] | 3320 | 20 | 166 | –
9 | CCCN1CCN(c2ccc3c(c2)C(N(CC)C(=O)OCc2ccccc2)CCC3)CC1 (stereo not drawn) [MDW-1-195, Benzyl ethyl(7-(4-propylpiperazin-1-yl)-1,2,3,4-tetrahydronaphthalen-1-yl)carbamate] | 321 | 5 | 70 | –
10 | CCCN1CCN(c2ccc3c(c2)C(N(CCC)C(=O)OCc2ccccc2)CCC3)CC1 (stereo not drawn) [MDW-1-196, Benzyl propyl(7-(4-propylpiperazin-1-yl)-1,2,3,4-tetrahydronaphthalen-1-yl)carbamate] | 199 | 9 | 22 | Ki (sigma 2 receptor; [3]): 9.4 nM; Ki (5-HT1A): 3800 nM; Ki (5-HT1B): 1310 nM; Ki (5-HT1D): 1100 nM; Ki (5-HT2A): 1280 nM; Ki (5-HT2B): 2140 nM; Ki (5-HT6): 1960 nM; Ki (5-HT7): 1050 nM; Ki (Alpha2A): 980 nM; Ki (D1): 1920 nM; Ki (D2): 931 nM; Ki (D3): 177 nM; Ki (D4): 2510 nM; Ki (D5): > 10000 nM; Ki (DAT): 1910 nM; Ki (H2): 1040 nM
11 | CCCN1CCN(c2ccc3c(c2)C(NC(=O)OCc2ccccc2)CCC3)CC1 (stereo not drawn) [MDW-1-202, Benzyl (7-(4-propylpiperazin-1-yl)-1,2,3,4-tetrahydronaphthalen-1-yl)carbamate] | 174 | 56 | 3 | –
12 | CCCN1CCN(c2ccc3c(c2)CCCC3N(C)C(=O)OCc2ccccc2)CC1 (stereo not drawn) [MDW-1-204, Benzyl methyl(6-(4-propylpiperazin-1-yl)-1,2,3,4-tetrahydronaphthalen-1-yl)carbamate] | – | – | – | Ki (sigma 1 receptor; [4]): 40 nM; Ki (sigma 2 receptor; [5]): 13 nM; Ki ratio Sig1R/Sig2R (sigma 2 receptor; Table 2): 3
13 | CN(C(=O)OCc1ccccc1)C1CCCc2ccc(N3CCN(C4CCCCC4)CC3)cc21 (stereo not drawn) [MDW-1-205, Benzyl (7-(4-cyclohexylpiperazin-1-yl)-1,2,3,4-tetrahydronaphthalen-1-yl)(methyl)carbamate] | 16 | 2 | 8 | –
14 | CCOC(=O)CCN1CCN(c2ccc3c(c2)C(NC(=O)OCc2ccccc2)CCC3)CC1 (stereo not drawn) [MDW-1-206, Ethyl 3-(4-(8-(((benzyloxy)carbonyl)amino)-5,6,7,8-tetrahydronaphthalen-2-yl)piperazin-1-yl)propanoate] | 2260 | 80 | 28 | –
15 | CCOC(=O)CCN1CCN(c2ccc3c(c2)CCCC3N(C)C(=O)OCc2ccccc2)CC1 (stereo not drawn) [MDW-1-207, Ethyl 3-(4-(5-(((benzyloxy)carbonyl)(methyl)amino)-5,6,7,8-tetrahydronaphthalen-2-yl)piperazin-1-yl)propanoate] | – | – | – | Ki (sigma 1 receptor; [4]): 647 nM; Ki (sigma 2 receptor; [5]): 91 nM; Ki ratio Sig1R/Sig2R (sigma 2 receptor; Table 2): 7
16 | CCOC(=O)CCN1CCN(c2cccc3c2CCCC3N(C)C(=O)OCc2ccccc2)CC1 (stereo not drawn) [MDW-1-214, Ethyl 3-(4-(5-(((benzyloxy)carbonyl)(methyl)amino)-5,6,7,8-tetrahydronaphthalen-1-yl)piperazin-1-yl)propanoate] | – | – | – | Ki (sigma 1 receptor; [4]): 303 nM; Ki (sigma 2 receptor; [5]): 34 nM; Ki ratio Sig1R/Sig2R (sigma 2 receptor; Table 2): 9
17 | CCCN1CCN(c2cccc3c2CCCC3N(C)C(=O)OCc2ccccc2)CC1 (stereo not drawn) [MDW-1-215, Benzyl methyl(5-(4-propylpiperazin-1-yl)-1,2,3,4-tetrahydronaphthalen-1-yl)carbamate] | – | – | – | Ki (sigma 1 receptor; [4]): 12 nM; Ki (sigma 2 receptor; [5]): 26 nM; Ki ratio Sig1R/Sig2R (sigma 2 receptor; Table 2): 0.5
18 | CCCN1CCN(c2ccc3c(c2)C(OC(=O)CCc2ccccc2)CCC3)CC1 (stereo not drawn) [MDW-1-290, 7-(4-Propylpiperazin-1-yl)-1,2,3,4-tetrahydronaphthalen-1-yl 3-phenylpropanoate] | 33 | 25 | 1 | –
